In US10233183B1, “13-hydroxysparteine cinnamic acid derivatives with anti-tumor activities and a method of preparing the same” (SHAANXI UNIVERSITY OF SCIENCE AND TECHNOLOGY, priority 2018, dated 2019):

Columns and labels:
Type in all cases: cell-based
[1] = tested on: human glioma cells (U251); assay: MTT tumor cell proliferation inhibition test, U251; settings: U-251, 48 hours treatment, read-out: Half Inhibitory Concentration IC50, U251
Text: (§1) The compounds of the present invention were subjected to tumor cell proliferation inhibition test, and conventional MTT method was used. Cell lines used: non-small cell lung cancer cells (H1975), human hepatoma cells (HepG2), human glioma cells (U251), human gastric adenocarcinoma cells (AGS), human breast cancer cells (1590). The culture medium was DMEM+15% NBS+double antibody. […] Antitumor cytarabine (Ara-C) was used as control solution, prepared under the same condition. Cell culture: adherent growth Tumor cells were cultured in 1640 medium containing 10% inactivated neonatal bovine serum and penicillin, streptomycin (1 million U/L), placed in carbon dioxide incubator at 37° C., 5% CO2, and saturated humidity. Cells were treated serially passaged 2-3 times. The first culture was washed with PBS 2 times, and digested with trypsin. Fresh culture medium was added evenly, cells were adjusted to a appropriate concentration and transferred into a new culture flask. Cell in an exponential phase were chosen for the tests. MTT Assay for Cell Viability and IC50 Determination: Experimental Principle: Living cells mitochondria in the dehydrogenase can reduce yellow MTT to water-insoluble blue-violet product MT (MTT formazan), deposited in the cells. The amount of production is proportional to the number of living cells. […] DMSO can dissolve blue violet crystals, and the color depth is proportional to the amount contained, so the absorbance measured by the microplate reader can reflect the cell viability. Methods: The exponential phase cells were digested and counted and seeded in 96-well plates at a density of 2×10^4/mL at 100 μl per well. […] After another 4 hours, the supernatant was discarded, and 100 μl of DMSO was added to each well. After mixing, the absorbance was measured at 570 nm using a microplate reader. An IC50 calculation software was used to determine the half inhibitory concentration (IC50).

[2] = tested on: human hepatoma cells (HepG2); assay: MTT tumor cell proliferation inhibition test, HepG2; settings: 48 hours treatment, read-out: Half Inhibitory Concentration IC50, HepG2
Text: as §1

[3] = tested on: human breast cancer cells (1590); assay: MTT tumor cell proliferation inhibition test, 1590; settings: 48 hours treatment, 1590 cells, read-out: Half Inhibitory Concentration IC50, 1590
Text: as §1

[4] = tested on: human gastric adenocarcinoma cells (AGS); assay: MTT tumor cell proliferation inhibition test, AGS; settings: 48 hours treatment, read-out: Half Inhibitory Concentration IC50, AGS
Text: as §1

[5] = tested on: different cell lines; assay: MTT tumor cell proliferation inhibition test, overall verdict; settings: summary in words of Table 1, different cell lines
Text: as §1

[6] = tested on: non-small cell lung cancer cells (H1975); assay: MTT tumor cell proliferation inhibition test, H1975; settings: Homo sapiens, NCI-H1975, 48 hours treatment, read-out: Half Inhibitory Concentration IC50, H1975
Text: as §1

Row | Structure (SMILES) | IC50 [1] [µM] | IC50 [2] [µM] | IC50 [3] [µM] | IC50 [4] [µM] | in vitro antitumor activities [5] | IC50 [6] [µM]
1 | O=C(/C=C\c1ccccc1)OC1CCN2[C@@H]3C[C@@H](C[C@@H]2C1)N1CCCC[C@@H]1C3 (stereo partly drawn) [Compound A, (Z)-(6S,7aR,13S,14aR)-tetradecahydro-6,13-methanodipyrido[1,2-a:1′,2′-e][1,5]diazocin-2-yl 3-phenylacrylate] | > 100 | 36.6 ± 3.01 | 32 ± 1.69 | 20.3 ± 1.12 | good in vitro antitumor activities | 16.9 ± 1.36
2 | Nc1ccn([C@@H]2O[C@H](CO)[C@@H](O)[C@@H]2O)c(=O)n1 [Ara-C, cytarabine, reference compound] | 39.2 ± 0.54 | 20.6 ± 0.54 | 76.3 ± 2.48 | > 100 | – | 19.2 ± 0.39
3 | O=C(/C=C\c1ccc(O)c(O)c1)OC1CCN2[C@@H]3C[C@@H](C[C@@H]2C1)N1CCCC[C@@H]1C3 (stereo partly drawn) [Compound E, (Z)-(6S,7aR,13S,14aR)-tetradecahydro-6,13-methanodipyrido[1,2-a:1′,2′-e][1,5]diazocin-2-yl 3-(3,4-dihydroxyphenyl)acrylate] | 42.2 ± 0.88 | > 100 | 36.2 ± 1.98 | > 100 | good in vitro antitumor activities | 43.1 ± 1.24
4 | O=C(/C=C\c1ccc(O)cc1)OC1CCN2[C@@H]3C[C@@H](C[C@@H]2C1)N1CCCC[C@@H]1C3 (stereo partly drawn) [Compound B, (Z)-(6S,7aR,13S,14aR)-tetradecahydro-6,13-methanodipyrido[1,2-a:1′,2′-e][1,5]diazocin-2-yl 3-(4-hydroxyphenyl)acrylate] | 74.98 ± 0.49 | 53.69 ± 0.34 | > 100 | > 100 | – | > 100
5 | O=C(/C=C\c1cccc(O)c1)OC1CCN2[C@@H]3C[C@@H](C[C@@H]2C1)N1CCCC[C@@H]1C3 (stereo partly drawn) [Compound C, (Z)-(6S,7aR,13S,14aR)-tetradecahydro-6,13-methanodipyrido[1,2-a:1′,2′-e][1,5]diazocin-2-yl 3-(3-hydroxyphenyl)acrylate] | 5.49 ± 1.98 | 73.55 ± 0.49 | 43.2 ± 0.95 | 26.3 ± 1.48 | good in vitro antitumor activities | 23.7 ± 2.37
6 | Cc1ccccc1/C=C\C(=O)OC1CCN2[C@@H]3C[C@@H](C[C@@H]2C1)N1CCCC[C@@H]1C3 (stereo partly drawn) [Compound K, (Z)-(6S,7aR,13S,14aR)-tetradecahydro-6,13-methanodipyrido[1,2-a:1′,2′-e][1,5]diazocin-2-yl 3-(o-tolyl)acrylate] | > 100 | > 100 | > 100 | 69.81 ± 0.06 | – | 89.6 ± 1.34
7 | Cc1ccc(/C=C\C(=O)OC2CCN3[C@@H]4C[C@@H](C[C@@H]3C2)N2CCCC[C@@H]2C4)cc1 (stereo partly drawn) [Compound H, (Z)-(6S,7aR,13S,14aR)-tetradecahydro-6,13-methanodipyrido[1,2-a:1′,2′-e][1,5]diazocin-2-yl 3-(p-tolyl)acrylate] | 75.4 ± 0.897 | 51.1 ± 1.44 | > 100 | 35.7 ± 2.58 | good in vitro antitumor activities | 29.9 ± 1.59
8 | Cc1cc(/C=C\C(=O)OC2CCN3[C@@H]4C[C@@H](C[C@@H]3C2)N2CCCC[C@@H]2C4)ccc1O (stereo partly drawn) [Compound I, (Z)-(6S,7aR,13S,14aR)-tetradecahydro-6,13-methanodipyrido[1,2-a:1′,2′-e][1,5]diazocin-2-yl 3-(4-hydroxy-3-methylphenyl)acrylate] | 66.9 ± 1.84 | 58.7 ± 1.78 | > 100 | 32.59 ± 0.29 | good in vitro antitumor activities | > 100
9 | Cc1cccc(/C=C\C(=O)OC2CCN3[C@@H]4C[C@@H](C[C@@H]3C2)N2CCCC[C@@H]2C4)c1 (stereo partly drawn) [Compound J, (Z)-(6S,7aR,13S,14aR)-tetradecahydro-6,13-methanodipyrido[1,2-a:1′,2′-e][1,5]diazocin-2-yl 3-(m-tolyl)acrylate] | 74.6 ± 2.94 | 88.5 ± 1.26 | 65.43 ± 0.47 | > 100 | – | 65 ± 1.89
10 | O=C(/C=C\c1ccc(Cl)cc1)OC1CCN2[C@@H]3C[C@@H](C[C@@H]2C1)N1CCCC[C@@H]1C3 (stereo partly drawn) [Compound M, (Z)-(6S,7aR,13S,14aR)-tetradecahydro-6,13-methanodipyrido[1,2-a:1′,2′-e][1,5]diazocin-2-yl 3-(4-chlorophenyl)acrylate] | 45.9 ± 1.82 | 26.8 ± 1.24 | 10.6 ± 1.33 | 55.54 ± 0.044 | good in vitro antitumor activities | > 100
11 | COc1cc(/C=C\C(=O)OC2CCN3[C@@H]4C[C@@H](C[C@@H]3C2)N2CCCC[C@@H]2C4)cc(OC)c1O (stereo partly drawn) [Compound G, (Z)-(6S,7aR,13S,14aR)-tetradecahydro-6,13-methanodipyrido[1,2-a:1′,2′-e][1,5]diazocin-2-yl 3-(4-hydroxy-3,5-dimethoxyphenyl)acrylate] | 37 ± 1.24 | > 100 | > 100 | 59.4 ± 0.97 | good in vitro antitumor activities | 55.48 ± 0.48
12 | COc1cc(/C=C\C(=O)OC2CCN3[C@@H]4C[C@@H](C[C@@H]3C2)N2CCCC[C@@H]2C4)ccc1O (stereo partly drawn) [Compound F, (Z)-(6S,7aR,13S,14aR)-tetradecahydro-6,13-methanodipyrido[1,2-a:1′,2′-e][1,5]diazocin-2-yl 3-(4-hydroxy-3-methoxyphenyl)acrylate] | > 100 | > 100 | 88.6 ± 2.12 | > 100 | – | > 100
